From PMC6009853, “Inhibition studies on a panel of human carbonic anhydrases with N1-substituted secondary sulfonamides incorporating thiazolinone or imidazolone-indole tails” (Journal of Enzyme Inhibition and Medicinal Chemistry, 2018)
pKi: −log10 of the molar value. Like-named read-outs stand apart in the source and are kept apart here.

Key:
hCA II = target: T1, hCA II (Homo sapiens, UniProt P00918); assay: stopped-flow CO2 hydrase assay; assay type: biochemical
T1 construct: gene CA2; recombinant, obtained in-house
Excerpt: stopped-flow CO2 hydrase assay on hCA II

hCA IX [1] = target: T2, hCA IX (Homo sapiens, UniProt Q16790); assay: stopped-flow CO2 hydrase assay; assay type: biochemical
T2 construct: gene CA9; recombinant, obtained in-house; tumour-associated isoform
Excerpt: stopped-flow CO2 hydrase assay on hCA IX

hCA I = target: T3, hCA I (Homo sapiens, UniProt P00915); assay: stopped-flow CO2 hydrase assay; assay type: biochemical
T3 construct: gene CA1; recombinant, obtained in-house; cytosolic
Excerpt: stopped-flow CO2 hydrase assay on hCA I

hCA IV = target: T4, hCA IV (Homo sapiens, UniProt P22748); assay: stopped-flow CO2 hydrase assay; assay type: biochemical
T4 construct: gene CA4; recombinant, obtained in-house; membrane-associated isoform

hCA IX [2] = target: T2, hCA IX; assay: stopped-flow CO2 hydrase assay; assay type: biochemical; conditions: read-out: hCA I
[3] = stopped-flow CO2 hydrase assay; assay type: biochemical, Homo sapiens; conditions: read-out: hCA I

T4 sequence (P22748 19-284): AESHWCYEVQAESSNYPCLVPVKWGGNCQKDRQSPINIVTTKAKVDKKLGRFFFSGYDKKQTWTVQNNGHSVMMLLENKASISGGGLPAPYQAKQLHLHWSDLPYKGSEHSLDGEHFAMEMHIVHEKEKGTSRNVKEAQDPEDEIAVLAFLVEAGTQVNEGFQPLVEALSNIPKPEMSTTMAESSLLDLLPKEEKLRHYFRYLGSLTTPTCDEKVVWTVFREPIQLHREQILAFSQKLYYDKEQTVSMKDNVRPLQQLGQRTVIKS
T3 sequence (P00915 2-261): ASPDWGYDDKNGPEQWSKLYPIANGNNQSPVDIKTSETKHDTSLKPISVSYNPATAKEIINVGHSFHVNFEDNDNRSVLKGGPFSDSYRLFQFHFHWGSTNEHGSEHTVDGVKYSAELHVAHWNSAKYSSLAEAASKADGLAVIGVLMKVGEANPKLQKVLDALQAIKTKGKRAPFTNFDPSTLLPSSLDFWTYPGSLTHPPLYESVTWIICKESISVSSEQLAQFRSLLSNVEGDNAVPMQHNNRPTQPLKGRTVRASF

| pKi (hCA II) | pKi (hCA IX [1]) | pKi (hCA I) | pKi (hCA IV; read-out: hCA IV) | pKi (hCA IV; read-out: hCA II) | pKi (hCA IX [2]) | pKi [3] | SMILES |
| --- | --- | --- | --- | --- | --- | --- | --- |
| 6.24 | 6.48 | 7.05 | 5.56 | – | – | – | NS(=O)(=O)c1ccc(N=Cc2c[nH]c3ccccc23)cc1 [4a, 4-{[(1H-indol-3-yl)methylene]amino}benzenesulfonamide] |
| < 5.00 | 5.79 | 5.07 | – | < 5.00 | – | – | CC(=O)NS(=O)(=O)c1ccc(N=Cc2c[nH]c3ccccc23)cc1 [4b, N-{[4-(((1H-indol-3-yl)methylene)amino)phenyl]sulfonyl}acetamide] |
| – | – | < 5.00 | < 5.00 | – | < 5.00 | < 5.00 | O=S(=O)(Nc1ncccn1)c1ccc(N=Cc2c[nH]c3ccccc23)cc1 [4c] |
| – | – | < 5.00 | < 5.00 | – | < 5.00 | < 5.00 | O=S(=O)(Nc1ccccn1)c1ccc(N=Cc2c[nH]c3ccccc23)cc1 [4d] |
| – | – | < 5.00 | < 5.00 | – | < 5.00 | < 5.00 | O=S(=O)(Nc1nccs1)c1ccc(N=Cc2c[nH]c3ccccc23)cc1 [4e] |
| 5.08 | 5.88 | 5.12 | < 5.00 | – | – | – | N=C(N)NS(=O)(=O)c1ccc(N=Cc2c[nH]c3ccccc23)cc1 [4f, 4-{[(1H-indol-3-yl)methylene]amino}-N-carbamimidoylbenzenesulfonamide] |
| 7.12 | 6.51 | 7.02 | 5.35 | – | – | – | NS(=O)(=O)c1ccc(NC2=NC(=O)C(=Cc3c[nH]c4ccccc34)S2)cc1 [7a, 4-{[5-((1H-indol-3-yl)methylene)-4-oxo-4,5-dihydrothiazol-2-yl]amino}benzenesulfonamide] |
| < 5.00 | 6.11 | 5.10 | – | < 5.00 | – | – | CC(=O)NS(=O)(=O)c1ccc(NC2=NC(=O)C(=Cc3c[nH]c4ccccc34)S2)cc1 [7b, N-{[4-((5-((1H-indol-3-yl)methylene)-4-oxo-4,5-dihydrothiazol-2-yl)amino)phenyl]sulfonyl} acetamide] |
| – | – | < 5.00 | < 5.00 | – | < 5.00 | < 5.00 | O=C1N=C(Nc2ccc(S(=O)(=O)Nc3ncccn3)cc2)SC1=Cc1c[nH]c2ccccc12 [7c] |
| – | – | < 5.00 | < 5.00 | – | < 5.00 | < 5.00 | O=C1N=C(Nc2ccc(S(=O)(=O)Nc3ccccn3)cc2)SC1=Cc1c[nH]c2ccccc12 [7d] |
| – | – | < 5.00 | < 5.00 | – | < 5.00 | < 5.00 | O=C1N=C(Nc2ccc(S(=O)(=O)Nc3nccs3)cc2)SC1=Cc1c[nH]c2ccccc12 [7e, 4-{[(5-((1H-indol-3-yl)methylene)-4-oxo-4,5-dihydrothiazol-2-yl)amino]-N-(thiazol-2-yl)] benzenesulfonamide] |
| 5.14 | 5.85 | 5.04 | < 5.00 | – | – | – | N=C(N)NS(=O)(=O)c1ccc(NC2=NC(=O)C(=Cc3c[nH]c4ccccc34)S2)cc1 [7f, 4-{[5-((1H-indol-3-yl)methylene)-4-oxo-4,5-dihydrothiazol-2-yl]amino}-N-carbamimidoyl benzenesulfonamide] |
| – | 6.50 | – | 6.58 | – | – | – | CC(=O)n1cc(C=C2N=C(c3ccccc3)N(c3ccc(S(N)(=O)=O)cc3)C2=O)c2ccccc21 [10a, 4-[4-((1-Acetyl-1H-indol-3-yl)methylene)-5-oxo-2-phenyl-4,5-dihydro-1H-imidazol-1-yl]benzenesulfonamide] |
| – | 5.83 | – | < 5.00 | – | – | – | CC(=O)NS(=O)(=O)c1ccc(N2C(=O)C(=Cc3cn(C(C)=O)c4ccccc34)N=C2c2ccccc2)cc1 [10b, N-[(4–(4-((1-acetyl-1H-indol-3-yl)methylene)-5-oxo-2-phenyl-4,5-dihydro-1H-imidazol-1-yl)phenyl)sulfonyl]acetamide] |
| – | – | < 5.00 | < 5.00 | – | < 5.00 | < 5.00 | CC(=O)n1cc(C=C2N=C(c3ccccc3)N(c3ccc(S(=O)(=O)Nc4ncccn4)cc3)C2=O)c2ccccc21 [10c, 4-[4-((1-Acetyl-1H-indol-3-yl)methylene)-5-oxo-2-phenyl-4,5-dihydro-1H-imidazol-1-yl]-N-(pyrimidin-2-yl)benzenesulfonamide] |
| – | – | < 5.00 | < 5.00 | – | < 5.00 | < 5.00 | CC(=O)n1cc(C=C2N=C(c3ccccc3)N(c3ccc(S(=O)(=O)Nc4ccccn4)cc3)C2=O)c2ccccc21 [10d] |
| – | – | < 5.00 | < 5.00 | – | < 5.00 | < 5.00 | CC(=O)n1cc(C=C2N=C(c3ccccc3)N(c3ccc(S(=O)(=O)Nc4nccs4)cc3)C2=O)c2ccccc21 [10e, 4-[4-((1-Acetyl-1H-indol-3-yl)methylene)-5-oxo-2-phenyl-4,5-dihydro-1H-imidazol-1-yl]-N-(thiazol-2-yl)benzenesulfonamide] |
| 5.42 | 5.79 | 5.24 | < 5.00 | – | – | – | CC(=O)n1cc(C=C2N=C(c3ccccc3)N(c3ccc(S(=O)(=O)N=C(N)N)cc3)C2=O)c2ccccc21 [10f, 4-[4-((1-Acetyl-1H-indol-3-yl)methylene)-5-oxo-2-phenyl-4,5-dihydro-1H-imidazol-1-yl]-N-carbamimidoylbenzenesulfonamide] |
| 6.22 | 6.48 | 7.03 | 5.56 | – | – | – | COc1ccc(C2=NC(=Cc3cn(C(C)=O)c4ccccc34)C(=O)N2c2ccc(S(N)(=O)=O)cc2)cc1 [10g, 4-[4-((1-Acetyl-1H-indol-3-yl)methylene)-2–(4-methoxyphenyl)-5-oxo-4,5-dihydro-1H-imidazol-1-yl]benzenesulfonamide] |
| 6.26 | 5.85 | 5.24 | 5.52 | – | – | – | COc1ccc(C2=NC(=Cc3cn(C(C)=O)c4ccccc34)C(=O)N2c2ccc(S(=O)(=O)NC(C)=O)cc2)cc1 [10h, N-[(4–(4-((1-acetyl-1H-indol-3-yl)methylene)-2–(4-methoxyphenyl)-5-oxo-4,5-dihydro-1H-imidazol-1-yl)phenyl)sulfonyl]acetamide] |
| – | – | < 5.00 | < 5.00 | – | < 5.00 | < 5.00 | COc1ccc(C2=NC(=Cc3cn(C(C)=O)c4ccccc34)C(=O)N2c2ccc(S(=O)(=O)Nc3ncccn3)cc2)cc1 [10i, 4-[4-((1-Acetyl-1H-indol-3-yl)methylene)-2–(4-methoxyphenyl)-5-oxo-4,5-dihydro-1H-imidazol-1-yl]-N-(pyrimidin-2-yl)benzenesulfonamide] |
| – | – | < 5.00 | < 5.00 | – | < 5.00 | < 5.00 | COc1ccc(C2=NC(=Cc3cn(C(C)=O)c4ccccc34)C(=O)N2c2ccc(S(=O)(=O)Nc3ccccn3)cc2)cc1 [10j, 4-[4-((1-Acetyl-1H-indol-3-yl)methylene)-2–(4-methoxyphenyl)-5-oxo-4,5-dihydro-1H-imidazol-1-yl]-N-(pyridin-2-yl)benzenesulfonamide] |
| – | – | < 5.00 | < 5.00 | – | < 5.00 | < 5.00 | COc1ccc(C2=NC(=Cc3cn(C(C)=O)c4ccccc34)C(=O)N2c2ccc(S(=O)(=O)Nc3nccs3)cc2)cc1 [10k, 4-[4-((1-Acetyl-1H-indol-3-yl)methylene)-2–(4-methoxyphenyl)-5-oxo-4,5-dihydro-1H-imidazol-1-yl]-N-(thiazol-2-yl)benzenesulfonamide] |
| < 5.00 | 5.92 | 5.16 | – | < 5.00 | – | – | COc1ccc(C2=NC(=Cc3cn(C(C)=O)c4ccccc34)C(=O)N2c2ccc(S(=O)(=O)NC(=N)N)cc2)cc1 [10l, 4-[4-((1-Acetyl-1H-indol-3-yl)methylene)-2–(4-methoxyphenyl)-5-oxo-4,5-dihydro-1H-imidazol-1-yl]-N-carbamimidoylbenzenesulfonamide] |
